System: Escherichia coli strain ATCC25922
Experiment: standard microdilution assay to determine minimum inhibitory concentrations (MICs)
Type: cell-based
Settings: for E. coli ATCC25922 MIC: Escherichia coli strain ATCC25922, microdilution; for MIC: Escherichia coli, ATCC25922, Escherichia coli strain ATCC25922, microdilution, read-out: E. coli ATCC25922 MIC
Procedure, shortened: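 Broth microdilution MIC against E. coli ATCC25922, following CLSI protocols, typically in a 100 microliter final volume. Results reported as +/− relative to a 16 micrograms/ml cutoff.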

SMILES	E. coli ATCC25922 MIC	MIC [µg/mL]
N=C(N)NCCCNCc1ccc(-n2cc3cc(-c4ccc(S(=O)(=O)CCCNC5CCCOC5)cc4)[nH]c3nc2=O)cc1 (stereo not drawn) [Compound 1275]	+ (a “+” indicates that the compound has an MIC value of 16 micrograms/ml or less)	–
N=C(N)NCCCNC(=O)c1ccc(-n2cc3cc(-c4ccc(S(=O)(=O)CCCNC5CCCNC5)cc4)[nH]c3nc2=O)cc1 (stereo not drawn) [Compound 1276]	+ (a “+” indicates that the compound has an MIC value of 16 micrograms/ml or less)	–
CC(=O)NCCCS(=O)(=O)c1ccc(-c2cc3cn(-c4ccc(CNCCCNC(=N)N)cc4)c(=O)nc3[nH]2)cc1 [Compound 1277]	− (a “−” indicates that the compound has an MIC value greater than 16 micrograms/ml)	–
NCCc1c[nH]c2cc(-n3cc4cc(CCS(=O)(=O)C5CCNCC5)[nH]c4nc3=O)ccc12 [Compound 1278]	–	> 16
Cc1cc(-n2cc3cc(-c4cccc(OCCCN)c4)[nH]c3nc2=O)ccc1CNCCCNC(=N)N [Compound 1280]	+ (a “+” indicates that the compound has an MIC value of 16 micrograms/ml or less)	–
CC(C)(C)NCC(=O)Nc1ccc(-c2cc3cn(-c4ccc(C(=O)NCCCNC(=N)N)cc4)c(=O)nc3[nH]2)cc1 [Compound 1281]	+ (a “+” indicates that the compound has an MIC value of 16 micrograms/ml or less)	–
NCCCc1c[nH]c2cc(-n3cc4cc(CCS(=O)(=O)C5CCNCC5)[nH]c4nc3=O)ccc12 [Compound 1282]	–	> 16
N=C(N)NCCCNC(=O)c1ccc(-n2cc3cc(-c4ccc(S(=O)(=O)CCCNC5CCCOC5)cc4)[nH]c3nc2=O)cc1 (stereo not drawn) [Compound 1284]	− (a “−” indicates that the compound has an MIC value greater than 16 micrograms/ml)	–
N=C(N)NCCCNCc1ccc(-n2cc3cc(-c4ccc(S(=O)(=O)CCCNC5CCNCC5)cc4)[nH]c3nc2=O)cc1 [Compound 1285]	+ (a “+” indicates that the compound has an MIC value of 16 micrograms/ml or less)	–
NCCCNC(=O)CCn1cc2cc(-c3ccc(S(=O)(=O)N[C@@H]4CCCNC4)cc3)[nH]c2nc1=O [Compound 1287]	–	> 16
N=C(N)NCCCNC(=O)Cn1cc2cc(-c3ccc(S(=O)(=O)NC4CCNCC4)cc3)[nH]c2nc1=O [Compound 1289]	− (a “−” indicates that the compound has an MIC value greater than 16 micrograms/ml)	–
N=C(N)NCCCNCc1ccc(-n2cc3cc(-c4ccc(NC(=O)CNC5CCNCC5)cc4)[nH]c3nc2=O)cc1 [Compound 1290]	+ (a “+” indicates that the compound has an MIC value of 16 micrograms/ml or less)	–
N=C(N)N1CCC(NCCCS(=O)(=O)c2ccc(-c3cc4cn(-c5ccc(CNCCCN)cc5)c(=O)nc4[nH]3)cc2)C1 (stereo not drawn) [Compound 1292]	+ (a “+” indicates that the compound has an MIC value of 16 micrograms/ml or less)	–
N=C(N)NCCCNCc1ccc(-n2cc3cc(-c4ccc(S(=O)(=O)CCCNC5CCCNC5)cc4)[nH]c3nc2=O)cc1 (stereo not drawn) [Compound 1293]	+ (a “+” indicates that the compound has an MIC value of 16 micrograms/ml or less)	–
NCCC(=O)NCCCn1cc2cc(-c3ccc(S(=O)(=O)N[C@@H]4CCCNC4)cc3)[nH]c2nc1=O [Compound 1298]	–	> 16
NCc1ccc(-n2cc3cc(C4C[C@@H](N)[C@@H](CO)O4)[nH]c3nc2=O)cc1 (stereo partly drawn) [Compound 1301]	–	> 16
Cc1cc(-n2cc3cc(-c4ccc(S(=O)(=O)NC5CCCNC5)cc4)[nH]c3nc2=O)ccc1CNCCCNC(=N)N (stereo not drawn) [Compound 1309]	+ (a “+” indicates that the compound has an MIC value of 16 micrograms/ml or less)	–
N=C(N)NCCCNC(=O)c1ccc(-n2cc3cc(-c4ccc(S(=O)(=O)NC5CCNC5)cc4)[nH]c3nc2=O)cc1 (stereo not drawn) [Compound 1310]	+ (a “+” indicates that the compound has an MIC value of 16 micrograms/ml or less)	–

Source: US9193731B2, “Antimicrobial compounds and methods of making and using the same” (Melinta Therapeutics, Inc., priority 2009, dated 2015)
